# Entries after “also recorded” stand apart in the source; their conditions may differ. Square brackets hold non-standard residues; d marks the D form. Peptide text beside a SMILES is read from it. * marks the point of attachment. Pentanoyl(5-NH-cholesteryl) = CC(C)CCC[C@@H](C)[C@H]1CC[C@H]2[C@@H]3CC=C4C[C@@H](NCCCCC(=O)*)CC[C@]4(C)[C@H]3CC[C@]12C; X1 = O=C(O)c1c(Cl)cc(C(=O)*)c(Cl)c1-c1c2cc(Cl)c(=O)c(Cl)c-2oc2c(Cl)c(O)c(Cl)cc12; Ahx = NCCCCCC(=O)O
# Assays:
# [1] = system: CHO cells; assay: Release of fluorescent cargo from early/recycling endosomes, confocal microscopy, CHO cells; type: cell-based, Chinese hamster; details: for release of green fluorescence of Compound 3 from early/recycling endosomes by the endosome disruptor: Compound 3 (5 μM) and Compounds 1, 2, or 5 (8 μM) for 24 h; for release of the fluorophore of the cargo compound when combined with Compound 1 or Compound 2: Compound 3 or Compound 4 (5 μM), disruptor 8 μM, 24 h
# Description: (§1) FIG. 4A-4J show confocal fluorescence and DIC micrographs of living cells treated with fluorescent probes. FIGS. 4A-4F show CHO cells were treated with Compound 3 or Compound 4 (5 μM) and Compounds 1, 2, or 5 (8 μM) for 24 h. In FIG. 4F, [chloroquine]=5 μM. In FIGS. 4G-4J, Jurkat lymphocytes were treated with Compound 3 or Compound 4 (2.5 μM) and Compound 1 or Compound 5 (2 μM) for 12 h.
# (§2) A Zeiss LSM 5 Pascal confocal laser-scanning microscope fitted with a Plan Apochromat objective (63×) was employed. Fluorescein and Alexa Fluor-488 were excited with a 488 nm Argon ion laser (25 mW, 1% laser power) and emitted photons were collected through 505 nm LP filter. Excitation of 6-Hex, Texas Red, and DiI employed a 543 nm HeNe laser and emitted photons were collected through a 560 nm LP filter.
# [2] = system: Jurkat lymphocytes; assay: Release of fluorescent cargo from early/recycling endosomes, confocal microscopy, Jurkat lymphocytes; type: cell-based, human; details: for release of green fluorescence of Compound 3 from early/recycling endosomes by the endosome disruptor: Compound 3 (2.5 μM) and disruptor (2 μM) for 12 h; for release of the fluorophore of the cargo compound when combined with Compound 1: Compound 3 or Compound 4 (2.5 μM), Compound 1 (2 μM), 12 h
# Description: as §1
# Jurkat cells were treated with green fluorescent Compound 3 (2.5 μM) and red fluorescent Compound 2 (2 μM) for 12 h at 37° C. In FIG. 9B, bafilomycin A1 (1 μM), a vacuolar H^+ ATPase inhibitor that blocks acidification of endosomes, was added. FIG. 9A is without bafilomyin. Cells were washed with media and imaged by DIC and confocal laser scanning microscopy.
# as §2
# [3] = system: CHO cells; assay: Dose dependence of endosomal escape quantified by flow cytometry, CHO cells; type: cell-based, Chinese hamster; details: Compound 3 (5 μM) with increased amounts of Compound 1, or Compound 5 at 8 micromolar, 24 h, 37° C.
# Description: (§3) Cellular fluorescence was analyzed by flow cytometry.
# (§4) Analyses were performed with a Beckman-Coulter XL-MCL bench-top flow cytometer. Forward-scatter (FS) and side-scatter (SSC) dot plots afforded cellular physical properties of size and granularity that allowed gating of live cells. After gating, 10,000 cells were counted. In studies of endosomal release of fluorescein derivative Compound 6 mediated by Compound 1, the fluorophore was excited at 488 nm with a 15 mW air-cooled argon-ion laser, the emission was split with a 550 nm dichroic and filtered through a 510 nm long pass filter and 530/30-nm band pass filter using the XL-MCL cytometer. The PMT voltage for this instrument was set to 501 for Jurkat cells and 524 for CHO cells.
# [4] = system: Jurkat lymphocytes; assay: Dose dependence of endosomal escape quantified by flow cytometry, Jurkat lymphocytes; type: cell-based, human; details: Compound 3 (2.5 μM) with increased amounts of Compound 1, or Compound 5 at 8 micromolar, 12 h, 37° C.
# Description: as §3, §4
# [5] = system: CHO cells; assay: Inhibiting endosome acidification, CHO cells (chloroquine); type: cell-based, Chinese hamster; details: chloroquine 5 μM, Compound 3 (5 μM) and Compound 2 (8 μM), 24 h
# Description: Exponentially growing CHO cells were cultivated on round collagen-coated coverslips (22 mm, BD BioCoat) in a six-well plate (1.2×10^5 cells/well, 2 mL). After 24 h, the media was replaced with fresh media containing chloroquine (final concentration=5 μM) in DMSO (final [DMSO]=1%) and cells were incubated at 37° C. for 1 h. The media was replaced with fresh media containing Compound 3 (5 μM) and Compound 2 (concentration=8 μM) in DMSO (final [DMSO]=1%) with or without chloroquine […] (final concentration=5 μM) in DMSO (final [DMSO]=1%). The cells were incubated at 37° C. for 24 h. The cells were washed with PBS (2×2 mL) prior to analysis by confocal microscopy.
# [6] = system: CHO cells; assay: Cytotoxicity assay (CellTiter-Glo), CHO cells; type: cell-based, Chinese hamster; details: 8 μM, 48 h at 37° C.
# Description: Trypsinized CHO cells (2×10^3) in media (100 μL) were loaded on a 96-well plate. After incubation for 36 h, the media was replaced with fresh media (100 μL) containing increasing concentrations of Compound 1 in DMSO (final [DMSO]=1%). After 48 h of incubation, the cells in each well were washed with PBS (2×100 μL) and detached by treatment with a solution of trypsin (50 μL, 5 min). The cell suspension (10 μL) was transferred to an opaque 96-well plate containing PBS (170 μL per well) and treated with CellTiter-Glo reagent (20 μL, Promega) according to the Promega protocol provided with the reagent. After incubation at ambient temperature (22° C.) for 10 min, the luminescence of the samples was measured with a Packard Fusion microplate reader.
# [7] = system: Jurkat lymphocytes; assay: Cytotoxicity assay (CellTiter-Glo), Jurkat cells; type: cell-based, human; details: 2 μM, 48 h at 37° C.
# Description: Jurkat lymphocytes (7×10^4) in media (100 μL) were loaded on a 96-well plate. To these cells were added increasing concentrations of Compound 1 in DMSO (final [DMSO]=1%). After incubation for 48 h, cells from each well (10 μL) were transferred to an opaque 96-well plate containing PBS (170 μL per well) and treated with CellTiter-Glo reagent (20 μL, Promega) according to the Promega protocol provided with the reagent. After incubation at ambient temperature (22° C.) for 10 min, the luminescence of the samples was measured with a Packard Fusion microplate reader.
# [8] = system: Jurkat lymphocytes; assay: Toxicity of colchicine-cholesterylamine Compound 30 with or without Compound 1, DIC micrographs; type: cell-based, human; details: 2 μM; 48 h
# Description: FIGS. 11B-11E show DIC micrographs of Jurkat lymphocytes treated for 48 h with DMSO (FIG. 11B), Compound 1 (FIG. 11C), Compound 30 (FIG. 11D, and Compounds 1 and 30 (FIG. 11E).
# The delivery system was studied with the anticancer agent colchicine being linked to the N-alkyl-3β-cholesterylamine via a disulfide, which compound is Compound 30 as shown in FIG. 11A. The delivery system utilized Compound 1 to release the anticancer agent colchicine from Compound 30. Colchicine was linked to an N-alkyl-3β-cholesterylamine via a disulfide linker to present a compound that is non-toxic to Jurkat lymphocytes at 200 nM. The cholesterylamine-PC4 peptide (Compound 1) is similarly non-toxic at 2 μM. However, the combination of these two compounds (Compound 1+Compound 30) is lethal to lymphocytes because Compound 1 enables release of the toxic colchicine derivative (FIGS. 11B-11E). […] It is thought that tumor-specific proteases capable of cleaving a peptide bond linking N-alkyl-3β-cholesterylamines to doxorubicin or other cancer agent will similarly enable the specific delivery of drugs to cognate cancer cells. Also, a cell type specific protease can be used for controlling delivery of the agent into the cytosol of those cell types.
# [9] = system: Jurkat lymphocytes; assay: Inhibiting endosome acidification, Jurkat cells (bafilomycin A1); type: cell-based, human; details: bafilomycin A1 1 μM, Compound 3 (2.5 μM) and Compound 2 (2 μM), 12 h, 37° C.
# Description: Jurkat lymphocytes (5×10^5) in media (500 μL) were pretreated with bafilomycin A1 (final concentration=1 μM) in DMSO (final [DMSO]=2%) for 1 h. […] After incubation at 37° C. for 12 h, the cells were washed with fresh media (500 μL) and resuspended in fresh media (125 μL) for analysis by confocal microscopy.
compound,measurement,setting,value
"CC(C)CCC[C@@H](C)[C@H]1CC[C@H]2[C@@H]3CC=C4C[C@@H](NCCCCC(=O)N[C@@H](CCC(=O)O)C(=O)N[C@@H](CCCCNC(=O)c5cc(Cl)c(C(=O)O)c(-c6c7cc(Cl)c(=O)c(Cl)c-7oc7c(Cl)c(O)c(Cl)cc67)c5Cl)C(=O)NCCCCCC(=O)NCCCCCC(=O)N[C@@H](CO)C(=O)N[C@@H](CO)C(=O)N[C@@H](C)C(=O)N[C@@H](Cc5c[nH]c6ccccc56)C(=O)N[C@@H](Cc5c[nH]c6ccccc56)C(=O)N[C@@H](CO)C(=O)N[C@@H](Cc5ccc(O)cc5)C(=O)N[C@@H](Cc5c[nH]c6ccccc56)C(=O)N5CCC[C@H]5C(=O)N5CCC[C@H]5C(=O)N[C@H](C(=O)N[C@@H](C)C(N)=O)C(C)C)CC[C@]4(C)[C@H]3CC[C@]12C [Compound 2, N-(6-{[6-({N-{5-(3β-Cholest-5-en-3-ylammonio)pentanoyl}-5-oxidanidyl-5-oxidanylidene-L-norvalyl-N^6-[4-carboxy-2,5-dichloro-3-(2,4,5,7-tetrachloro-6-hydroxy-3-oxo-3H-xanthen-9-yl)benzoyl]-L-lysyl}amino)hexanoyl]amino}hexanoyl)-L-seryl-L-seryl-L-alanyl-L-tryptophyl-L-tryptophyl-L-seryl-L-tyrosyl-L-tryptophyl-L-prolyl-L-prolyl-L-valyl-L-alaninamide] ({Pentanoyl(5-NH-cholesteryl)}-EK(X1)[Ahx][Ahx]SSAWWSYWPPVA-NH2)",release of green fluorescence of Compound 3 from early/recycling endosomes by the endosome disruptor,[1],fluorescence was observed in the cytosol and nucleus
same,release of green fluorescence of Compound 3 from early/recycling endosomes by the endosome disruptor,[2],endosomal escape
"Ac-SSAWWSYWPPVA-NH2 [Compound 5, N-Acetyl-L-seryl-L-seryl-L-alanyl-L-tryptophyl-L-tryptophyl-L-seryl-L-tyrosyl-L-tryptophyl-L-prolyl-L-prolyl-L-valyl-L-alaninamide, reference compound]",release of green fluorescence of Compound 3 from early/recycling endosomes by the endosome disruptor,[1],little effect
same,release of green fluorescence of Compound 3 from early/recycling endosomes by the endosome disruptor,[2],little effect
same,cellular fluorescence (endosomal escape) by flow cytometry,[3],did not increase fluorescence
same,cellular fluorescence (endosomal escape) by flow cytometry,[4],did not increase fluorescence
CCN(CC)CCCC(C)Nc1ccnc2cc(Cl)ccc12 (stereo not drawn) [chloroquine],effect of raising endosomal pH on release of the fluorophore,[5],blocked release of the fluorophore
"CC(C)CCC[C@@H](C)[C@H]1CC[C@H]2[C@@H]3CC=C4C[C@@H](NCCCCC(=O)N[C@@H](CCC(=O)O)C(=O)N[C@@H](CCC(=O)O)C(=O)NCCCCCC(=O)NCCCCCC(=O)N[C@@H](CO)C(=O)N[C@@H](CO)C(=O)N[C@@H](C)C(=O)N[C@@H](Cc5c[nH]c6ccccc56)C(=O)N[C@@H](Cc5c[nH]c6ccccc56)C(=O)N[C@@H](CO)C(=O)N[C@@H](Cc5ccc(O)cc5)C(=O)N[C@@H](Cc5c[nH]c6ccccc56)C(=O)N5CCC[C@H]5C(=O)N5CCC[C@H]5C(=O)N[C@H](C(=O)N[C@@H](C)C(N)=O)C(C)C)CC[C@]4(C)[C@H]3CC[C@]12C [Compound 1, N-[6-({6-[(N-{5-(3β-Cholest-5-en-3-ylammonio)pentanoyl}-5-oxidanidyl-5-oxidanylidene-L-norvalyl-5-oxidanidyl-5-oxidanylidene-L-norvalyl)amino]hexanoyl}amino)hexanoyl]-L-seryl-L-seryl-L-alanyl-L-tryptophyl-L-tryptophyl-L-seryl-L-tyrosyl-L-tryptophyl-L-prolyl-L-prolyl-L-valyl-L-alaninamide] ({Pentanoyl(5-NH-cholesteryl)}-EE[Ahx][Ahx]SSAWWSYWPPVA-NH2)",toxicity (cellular viability),[6],non-toxic
same,toxicity (cellular viability),[7],non-toxic
same,toxicity to Jurkat lymphocytes,[8],non-toxic
"CC(C)CCC[C@@H](C)[C@H]1CC[C@H]2[C@@H]3CC=C4C[C@@H](NCCCNC(=O)[C@H](CCC(=O)O)NC(=O)[C@H](CCC(=O)O)NC(=O)CCSSCCNC(=O)c5ccc(-c6c7ccc(=O)cc-7oc7cc(O)ccc67)c(C(=O)O)c5)CC[C@]4(C)[C@H]3CC[C@]12C [Compound 3, (11S,14S)-11-(2-Carboxylatoethyl)-1-[3-carboxylato-4-(6-oxido-3-oxo-3H-xanthen-9-yl)phenyl]-14-[({3-(3β-cholest-5-en-3-ylammonio)propyl}amino)carbonyl]-1,9,12-trioxo-5,6-dithia-2,10,13-triazaheptadecan-17-oate]",release of the fluorophore of the cargo compound when combined with Compound 1 or Compound 2,[1],released from entrapment in early/recycling endosomes
same,release of the fluorophore of the cargo compound when combined with Compound 1,[2],released from entrapment in early/recycling endosomes
"CC(C)CCC[C@@H](C)[C@H]1CC[C@H]2[C@@H]3CC=C4C[C@@H](NCCCNC(=O)[C@H](CCC(=O)O)NC(=O)[C@H](CCC(=O)O)NC(=O)CCNC(=O)CCNC(=O)c5ccc(-c6c7ccc(=O)cc-7oc7cc(O)ccc67)c(C(=O)O)c5)CC[C@]4(C)[C@H]3CC[C@]12C [Compound 4, (11S,14S)-11-(2-Carboxylatoethyl)-1-[3-carboxylato-4-(6-oxido-3-oxo-3H-xanthen-9-yl)phenyl]-14-[({3-(3β-cholest-5-en-3-ylammonio)propyl}amino)carbonyl]-1,5,9,12-tetraoxo-2,6,10,13-tetraazaheptadecan-17-oate]",release of the fluorophore of the cargo compound when combined with Compound 1 or Compound 2,[1],blocked release of the fluorophore
same,release of the fluorophore of the cargo compound when combined with Compound 1,[2],blocked release of the fluorophore
CO/C1=C\C(C)=C\[C@@H](C)[C@@H](O)[C@@H](C)C/C(C)=C/C=C/[C@H](OC)[C@@H]([C@@H](C)[C@@H](O)[C@H](C)[C@@]2(O)C[C@@H](O)[C@H](C)[C@@H](C(C)C)O2)OC1=O [bafilomycin A1],effect of raising endosomal pH on release of the fluorophore (endosomal escape),[9],blocked release of the fluorophore; also recorded: retention in endosomes

# — patent publication US8889631B2, “Disruptors of early/recycling endosomes” (The University of Kansas, priority 2008, dated 2014)
